According to patent US8710060B2, “Piperazinyl methyl phenyl cyclohexane compound” (Daiichi Sankyo Company, Limited, priority 2010, dated 2014):
Structures can show the parent of a compound that is named as a salt.

test system: longitudinal muscle strip from the duodenal smooth muscle layer; assay: Measurement of intestinal contractile activity (Magnus organ bath, cumulative dosing); conditions: Oryctolagus cuniculus; male NZW rabbit duodenal longitudinal muscle strip, Krebs solution 31° C., test compound 0.01 nM to 10 μM cumulative dosing; contraction by carbachol 10 μM taken as 100%
Protocol: Bioactivity Test (Measurement of Intestinal Contractile Activity)
A male NZW rabbit (body weight: 2.5 to 3.0 kg, KITAYAMA LABES CO., LTD., NAGANO) was used.
Carbachol (carbamylcholine chloride, Sigma-Aldrich Japan K.K.) was purchased and used. Each test compound was dissolved in dimethyl sulfoxide (DMSO, Sigma-Aldrich Japan K.K.), and then suspended in physiological saline. Carbachol was dissolved in physiological saline.
(3) Experimental Method and Results
Pentobarbital sodium (Kyoritsu Seiyaku Corporation, Osaka) was administered to the rabbit through the auricular vein, and the rabbit was euthanized by exsanguination under anesthesia. Thereafter, the duodenum was excised from the rabbit and rapidly rinsed with Krebs solution (NaCl 120.0 mM, KCl 4.7 mM, CaCl2 2.4 mM, KH2PO4 1.0 mM, MgSO4 1.2 mM, NaHCO3 24.5 mM, and glucose 5.6 mM, pH 7.4). Then, a longitudinal muscle strip (length: 10 mm, width: 3 mm) was prepared from the duodenal smooth muscle layer obtained by stripping off the mucosal layer from the duodenum. The prepared strip was mounted in an organ bath and contained in 20 mL of Krebs solution gassed with 95% O2 and 5% CO2 at 31° C. so as to suppress excessive locomotion, and a tension of 1 g was applied thereto. The strip was left to stand for 1 hour or more while replacing the Krebs solution every 15 minutes until the strip was equilibrated. Before starting the experiment, stimulation with carbachol at 10 μM was repeatedly applied until a reproducible contraction was obtained. The contractile activity was measured with an FD pickup (TB-611T, Nihon Kohden Corporation, Tokyo) and recorded on a pen recorder (RECTI HORIZ-8K, Sanei, Tokyo). Each test compound was added to the Krebs solution at 0.01 nM to 10 μM, and the strip was contracted by cumulative dosing. The contractile activity at each concentration was determined when the contractile activity at the time of stimulation with carbachol at 10 μM was taken as 100%, and the EC50 value of each test compound was determined. The EC50 values are shown below.

SMILES | EC50 [nM]
C[C@H]1CN(Cc2ccc(N(C)C(=O)[C@H]3CC[C@H](Oc4ccc(F)cc4)CC3)cc2)CCN1 [Example 1, Trans-4-(4-fluorophenoxy)-N-methyl-N-(4-{[(3S)-3-methylpiperazin-1-yl]methyl}phenyl)cyclohexanecarboxamide] | 28
Cc1cc(N(C)C(=O)[C@H]2CC[C@H](Oc3ccc(F)cn3)CC2)ccc1CN1CCN[C@@H](C)C1 [Example 4, Trans-4-[(5-fluoropyridin-2-yl)oxy]-N-methyl-N-(3-methyl-4-{[(3S)-3-methylpiperazin-1-yl]methyl}phenyl)cyclohexanecarboxamide hydrochloride] | 2.5
Cc1cc(N(C)C(=O)[C@H]2CC[C@H](Oc3cccc(CO)c3)CC2)ccc1CN1CCN[C@@H](C)C1 [Example 5, Trans-4-[3-(hydroxymethyl)phenoxy]-N-methyl-N-(3-methyl-4-{[(3S)-3-methylpiperazin-1-yl]methyl}phenyl)cyclohexanecarboxamide hydrochloride] | 7.3
CCOC(=O)Cc1cccc(O[C@H]2CC[C@H](C(=O)N(C)c3ccc(CN4CCN[C@@H](C)C4)c(C)c3)CC2)c1 [Example 16, Ethyl [3-({trans-4-[methyl(3-methyl-4-{[(3S)-3-methylpiperazin-1-yl]methyl}phenyl)carbamoyl]cyclohexyl}oxy)phenyl]acetate hydrochloride] | 2.4
Cc1cc(N(C)C(=O)[C@H]2CC[C@H](Oc3ccnc(C#N)c3)CC2)ccc1CN1CCN[C@@H](C)C1 [Example 22, Trans-4-[(2-cyanopyridin-4-yl)oxy]-N-methyl-N-(3-methyl-4-{[(3S)-3-methylpiperazin-1-yl]methyl}phenyl)cyclohexanecarboxamide hydrochloride] | 4.8
Cc1cc(N(C)C(=O)[C@H]2CC[C@H](Oc3cccc(CC(=O)NC(C)C)c3)CC2)ccc1CN1CCN[C@@H](C)C1 [Example 30, Trans-4-{3-[2-(isopropylamino)-2-oxoethyl]phenoxy}-N-methyl-N-(3-methyl-4-{[(3S)-3-methylpiperazin-1-yl]methyl}phenyl)cyclohexanecarboxamide hydrochloride] | 3
Cc1cc(N(C)C(=O)[C@H]2CC[C@H](Oc3cccc(CC(=O)NC(C)(C)C)c3)CC2)ccc1CN1CCN[C@@H](C)C1 [Example 33, Trans-4-{3-[2-(tert-butylamino)-2-oxoethyl]phenoxy}-N-methyl-N-(3-methyl-4-{[(3S)-3-methylpiperazin-1-yl]methyl}phenyl)cyclohexanecarboxamide] | 1.5
Cc1cc(N(C)C(=O)[C@H]2CC[C@H](Oc3cccc(CC(=O)N(C)C(C)C)c3)CC2)ccc1CN1CCN[C@@H](C)C1 [Example 34, Trans-4-(3-{2-[isopropyl(methyl)amino]-2-oxoethyl}phenoxy)-N-methyl-N-(3-methyl-4-{[(3S)-3-methylpiperazin-1-yl]methyl}phenyl)cyclohexanecarboxamide] | 2.1
Cc1cc(N(C)C(=O)[C@H]2CC[C@H](Oc3cccc(CS(C)(=O)=O)c3)CC2)ccc1CN1CCN[C@@H](C)C1 [Example 42, hydrochloride] | 4.8
COCCOCc1cccc(O[C@H]2CC[C@H](C(=O)N(C)c3ccc(CN4CCN[C@@H](C)C4)c(C)c3)CC2)c1 [Example 53, Trans-4-{3-[(2-methoxyethoxy)methyl]phenoxy}-N-methyl-N-(3-methyl-4-{[(3S)-3-methylpiperazin-1-yl]methyl}phenyl)cyclohexanecarboxamide hydrochloride] | 6.8
Cc1cc(N(C)C(=O)[C@H]2CC[C@H](Oc3cccc(COC[C@@H](C)O)c3)CC2)ccc1CN1CCN[C@@H](C)C1 [Example 56, Trans-4-[3-({[(2R)-2-hydroxypropyl]oxy}methyl)phenoxy]-N-methyl-N-(3-methyl-4-{[(3S)-3-methylpiperazin-1-yl]methyl}phenyl)cyclohexanecarboxamide hydrochloride] | 1.2
Cc1cc(N(C)C(=O)[C@H]2CC[C@H](Oc3cccc(COCC(C)(C)O)c3)CC2)ccc1CN1CCN[C@@H](C)C1 [Example 57, Trans-4-{3-[(2-hydroxy-2-methylpropoxy)methyl]phenoxy}-N-methyl-N-(3-methyl-4-{[(3S)-3-methylpiperazin-1-yl]methyl}phenyl)cyclohexanecarboxamide hydrochloride] | 11.3
Cc1cc(N(C)C(=O)[C@H]2CC[C@H](Nc3cccc(COCC(C)(C)O)c3)CC2)ccc1CN1CCN[C@@H](C)C1 [Example 58, Trans-4-({3-[(2-hydroxy-2-methylpropoxy)methyl]phenyl}amino)-N-methyl-N-(3-methyl-4-{[(3S)-3-methylpiperazin-1-yl]methyl}phenyl)cyclohexanecarboxamide hydrochloride] | 0.9
